# Measured values published in patent US20240238271A1, “PHARMACEUTICAL COMPOSITION FOR ENHANCING CELL KILLING, AND USE THEREOF” (SHANGHAI JUNCELL THERAPEUTICS CO., LTD., priority 2020, published 2024).
# What was measured:
# [1] = tested on: primary tumor cells such as pancreatic tumor cells; assay: Killing effect of TILs on primary tumor cells treated with hydroxychloroquine; type: cell-based, human
# Procedure: In a specific embodiment, TILs are obtained from tumor samples of pancreatic cancer patients with reference to the method disclosed in CN110785486A (which is incorporated herein by reference in its entirety). Primary tumor cells such as pancreatic tumor cells are treated with the TILs alone (control group) or in combination with a compound of Formula (I) (e.g., hydroxychloroquine) (compound group). The cells of the compound group are treated with different concentrations of the compound of Formula (I) (e.g., hydroxychloroquine) for more than 12 hours (e.g., 24 hours). Under different effect-to-target ratios were the killing effects of TILs on target cells in the control group and the compound group detected.
# HLAs = assay: HLA expression (positive rate) of tumor cells treated with hydroxychloroquine; type: cell-based, human; conditions: compound group vs control group
# type I HLA (HLA-A, B, C) [2] = assay: Type I HLA on surface of tumor cells of T008 PDX mice, flow cytometry MFI; type: in vivo, mouse; conditions: 60 mg/kg/day i.p. q.d. 30 days, vs PBS control
# Procedure: (§1) PDX mouse models derived from tissue T008 and tissue T018 were established according to the method of example 3. The model animals were grouped according to the following Table 7 in which mice were treated with hydroxychloroquine alone. Hydroxychloroquine used in the experiment was purchased from MCE (Cat. No.: HY-W031727).
# (§2) Mice were sacrificed 30 days after treatment, and tumor tissues were taken out and digested into a single-cell suspension with dispase. After staining with a general HLA-A, B, C flow cytometric antibody (Biolegend, PE-anti-human HLA-A, B, C Antibody Cat. NO. 311406), the phenotypes and fluorescence intensity (MFI) were measured by flow cytometry, and the MFI values of different groups of HLA-type I positive cells were counted and compared.
# type I HLA (HLA-A, B, C) [3] = assay: Type I HLA on surface of tumor cells of T018 PDX mice, flow cytometry MFI; type: in vivo, mouse; conditions: 60 mg/kg/day i.p. q.d. 30 days, vs PBS control
# Procedure: as §1, §2
structure (smiles),measurement,setting,value
CCN(CCO)CCCC(C)Nc1ccnc2cc(Cl)ccc12 (centres unmarked) [hydroxychloroquine],concentration of hydroxychloroquine at which the effect on TIL killing is more clear,[1]; compound group vs control group (TILs alone),above 20 μM
same,killing effects of TILs on target cells,"[1]; primary tumor cells treated with hydroxychloroquine for more than 12 hours (e.g., 24 hours), different effect-to-target ratios, vs TILs alone",more effectively killed by TILs
same,positive rate of the cells (HLA expression),HLAs,significantly higher
same,expression levels of type I HLA on the surface of tumor cells,"type I HLA (HLA-A, B, C) [2]",significantly increased
same,expression levels of type I HLA on the surface of tumor cells,"type I HLA (HLA-A, B, C) [3]",significantly increased
